Values quoted from earlier work, collected in US12708515B2, “Valved devices, treatments and methods to restore tissue elastic recoil” (priority 2021, dated 2026).

How the values were obtained:
E. coli and E. faecalis = conditions: physiologically relevant conditions
E. coli = conditions: cysteine terminated peptide; second value of the pair

## LasioglossinIII
E. coli and E. faecalis
  antimicrobial activity of coated catheters: potent antimicrobial activity
E. coli
  anti-biofilm: 40% (anti-biofilm)
